Assay results published in patent US20200237800A1, “METHODS AND COMPOSITIONS FOR THE TREATMENT OF INFLAMMATORY DISEASE” (THE BRIGHAM AND WOMEN'S HOSPITAL, INC., priority 2017, published 2020).
Strand notation (5' to 3'): a small letter for the sugar, then the base; units joined by * are phosphorothioate-linked, units joined directly phosphodiester-linked; [ ] holds rarer units or linkages, { } end groups; capitals alone tell only the bases. d = 2'-deoxy (DNA); m = 2'-O-methyl; r = 2'-OH (RNA)

Columns and labels:
[1] = system: lnc-FAM164A1; assay: Silencing of lnc-FAM164A1 by antisense and si-RNA oligonucleotides on human PBMC-derived macrophages (RT-PCR); assay type: cell-based; details: for potency of silencing of lnc-FAM164A1: compared among 10 different siRNA oligonucleotides in human macrophages
Experimental: (§1) Silencing of lnc-FAM164A1 by antisense and si-RNA oligonucleotides on human PBMC-derived macrophages. Lnc-FAM164A1 RNA silencing was performed on human PBMC-derived macrophagesas using SilenceMag (BOCA Scientific, Boca Raton, Fla.) at final concentration of 50-100 nM.32 36-48 hours after transfection, macrophages were stimulated by 10 ng/mL LPS for 2-6 hours before collection of macrophages and cell culture medium. Anti-sense LNATM long RNA GepmeR oligonucleotides target lnc-FAM164A1 (Sequence 5′-GGTAAGAAATAGGTTG-3′(SEQ ID NO: 52)) and nonspecific negative control oligonucleotides (Sequence 5′-AACACGTCTATACGC-3′(SEQ ID NO: 53)) were designed by Exiqon A/S (Vedbaek, Denmark). Si-RNA Oligonucleotides targeting lnc-FAM164A1 and luciferase control siRNA oligos were designed by Axolabs (Kulmback, Germany). Their sequences and chemical modifications are as follows (A, G, U, C: RNA nucleotide; a, g, u, c: 2′-O-methyl-nucleotide, s: Phosphorothioate, dT: desoxy-T residue): Luciferase control siRNA (XD-00194): Sense strand: 5′-cuuAcGcuGAGuAcuucGAdTsdT-3′ (SEQ ID NO: 54); Antisense strand: 5′-UCGAAGuACUcAGCGuAAGdTsdT-3′ (SEQ ID NO: 4). Lnc-FAM164A1 specific siRNA oligo#5 (XD-05325): 5′-ucAccAuuAucuucAuAcudTsdT-3′(SEQ ID NO: 5) Antisense strand: 5′-AGuAUGAAGAuAAUGGUGAdTsdT-3′ (SEQ ID NO: 6). Lnc-FAM164A1 specific siRNA oligo#8 (XD-05328): 5′-uguGcuAAAAuAcuGAGAudTsdT-3′ (SEQ ID NO: 7); Antisense strand: 5′-AUCUcAGuAUUUuAGcAcAdTsdT-3′ (SEQ ID NO: 8).
RNA extraction and RT-PCR. Total RNA were extracted using an Illustra RNAspin Mini kit (GE Healthcare, Piscataway, N.J.) and the genomic DNA was removed by on-column DNase I digestion at RT for 15 minutes. cDNAs were synthesized using a high capacity cDNA reverse transcription kit (Applied Biosystems, Carlsbad, Calif.). Real-time PCR was performed on a 7900HT fast real-time PCR system (Applied Biosystems). […]

[2] = system: human PBMC-derived macrophages; assay: Cytokine/chemokine mRNA (RT-PCR) and protein (ELISA) in LPS-activated human PBMC-derived macrophages after lnc-FAM164A1 silencing; assay type: cell-based; details: for TNF-α mRNA: FIG. 11E
Experimental: as §1
(§2) RNA extraction and RT-PCR. Total RNA were extracted using an Illustra RNAspin Mini kit (GE Healthcare, Piscataway, N.J.) and the genomic DNA was removed by on-column DNase I digestion at RT for 15 minutes. cDNAs were synthesized using a high capacity cDNA reverse transcription kit (Applied Biosystems, Carlsbad, Calif.). Real-time PCR was performed on a 7900HT fast real-time PCR system (Applied Biosystems). Taqman probe and primers for lnc-FAM164A1 were designed by Integrated DNA Technologies and listed as follows: Probe: 5′-/56-FAM/ATGG CCTCA/ZEN/GTTAGGACTGCTTGG/3IABkFQ/-3′ (SEQ ID NO: 9); Primer1: 5′-GATGGGTGC TGGGAGTATAAG-3′ (SEQ ID NO: 10); Primer2: 5′-[…]-3′ (SEQ ID NO: 11). Other Taqman probes for IL-1β, IL-6, IL-10, CCL2, TNF-α, and GAPDH was purchased from Life Technologies. Relative expression of each gene was normalized by GAPDH.
ELISA. Duoset ELISA kits (R&D systems, Minneapolis, Minn.) were used to detect the levels of cytokines (human and mouse CCL2, IL-6, TNF-α) in culture medium from macrophages or mouse plasma.

[3] = system: NF-κB signaling; assay: NF-κB inhibitor pretreatment of LPS-stimulated PBMC-derived macrophages (RT-PCR); assay type: cell-based, human; details: 3-30 μM, dose-dependent; 30 minutes pretreatment, 10 ng/mL LPS 6 hours
Experimental: FIGS. 10A and 18B. (FIG. 10A) Time course of lnc-FAM164A1 and cytokines expression in LPS-stimulated PBMC-derived macrophages. Human PBMC-derived macrophages were stimulated with 10 ng/mL LPS for 6, 12 and 24 hours. Lnc-FAM164A1 RNA, IL-1β, IL-6 and TNF-α mRNA expression were determined by RT-PCR and normalized by GAPDH expression. (Representative results of 2 different donors). […] Human PBMC-derived macrophages were pretreated with 3-30 μM […] for 30 minutes before the stimulation with 10 ng/mL LPS for 6 hours. Lnc-FAM164A1 RNA, IL-1β, IL-6 and TNF-α mRNA expression were determined by RT-PCR and normalized by GAPDH expression (Representative data from 2 different donors).
as §2, with “Other Taqman probes for IL-1β, IL-6, IL-10, CCL2, TNF-α, and GAPDH was purchased from Life Technologies. Relative expression of each gene was normalized by GAPDH.” left out

[4] = system: human PBMC-derived macrophages; assay: Induction of lnc-FAM164A1 expression in human PBMC-derived macrophages (RT-PCR); assay type: cell-based; details: 10 ng/mL cytokine, 3 hours
Experimental: FIGS. 1A-1E show LPS treatment increases the expression of lnc-FAM164A1 in human macrophages, PBMCs and white blood cells in humanized Hu-CD34 NSG mice. […] Human PBMC-derived macrophages were stimulated with 10 ng/mL LPS for 3h or 6h (FIG. 1B, P<0.05 LPS vs control; n=5-6 different donors). Human PBMC was isolated from citrated whole blood derived stimulated with 10 ng/mL LPS for 6 hours ex vivo (FIG. 1C, P<0.05 LPS vs control; n=3-4 different donors). Hu-CD34 NSG mice were stimulated with 5 mg/kg of LPS for 6 hours (FIG. 1D, P<0.05, NSG control vs NSG +LPS, n=4 mice per group). Relative fold change of the lnc-FAM164A1 expression was determined by RT-PCR (FIGS. 1B-1D). […]
FIG. 9A-9C show human PBMC-derived macrophages were stimulated with 10 ng/mL human IL-6 and TNF-α for 3 hours. Relative fold change of the lnc-FAM164A1 expression was determined by RT-PCR (P<0.05 LPS vs control; n=3-4 different donors) (FIG. 9A). […] Expression of lnc-FAM164A1 RNA in liver, spleen and lung isolated from the endotoxemic mice was determined by RT-PCR (P<0.05, Spleen vs Lung; n=4 mice per group) (FIG. 9B). […] Lnc-FAM164A1 RNA, IL-1β and GAPDH mRNA expression were determined by RT-PCR and shown as the ratio of nuclear/cytoplasmic in unstimulated macrophages (Left Panel) and LPS-treated macrophages (Right Panel) (n=2 different donors). […]

[5] = LPS-stimulated human macrophages

## 5′-GGTAAGAAATAGGTTG-3′ (LNA gapmer, pattern and linkages not given here) [anti-sense oligonucleotides]
[1]; human macrophages, FIG. 11A
  silencing efficacy of lnc-FAM164A1: at least 50%
[2]; [5]
  LPS-induced CCL2 mRNA expression and protein release: significant suppressed
  LPS-induced IL-6 mRNA expression and protein release: significant suppressed
  LPS-induced TNF-α mRNA expression and protein release: significant suppressed
[2]; control and LPS-treated macrophages
  expression of anti-inflammatory cytokine IL-10: no changes

## Cc1ccc(S(=O)(=O)/C=C/C#N)cc1 [Bay 11-7802]
[3]
  transcription of cytokines (IL-1β, IL-6 and TNF-α mRNA): blocks the transcription
  transcription of lnc-FAM164A1: blocks the transcription

## 5′-ucAccAuuAucuucAuAcudTsdT-3′ (sense mUmCrAmCmCrAmUmUrAmUmCmUmUmCrAmUrAmCmUdT*dT; antisense rArGmUrArUrGrArArGrAmUrArArUrGrGrUrGrAdT*dT; siRNA) [#5]
[1]
  potency of silencing of lnc-FAM164A1: higher potency of silencing than the others
[2]; [5]
  LPS-induced CCL2 mRNA expression and protein release: decreased expression
  LPS-induced IL-6 mRNA expression and protein release: decreased expression
  TNF-α mRNA: No significant change

## IL-6: human IL-6, pro-inflammatory cytokine used as stimulus at 10 ng/mL
[4]
  lnc-FAM164A1 expression: increased the expression

## TNF-α
[4]
  lnc-FAM164A1 expression: increased the expression

## 5′-uguGcuAAAAuAcuGAGAudTsdT-3′ (sense mUmGmUrGmCmUrArArArAmUrAmCmUrGrArGrAmUdT*dT; antisense rArUrCrUmCrArGmUrArUrUrUmUrArGmCrAmCrAdT*dT; siRNA) [#8]
[1]
  potency of silencing of lnc-FAM164A1: higher potency of silencing than the others
[2]; [5]
  LPS-induced CCL2 mRNA expression and protein release: decreased expression
  LPS-induced IL-6 mRNA expression and protein release: decreased expression
  TNF-α mRNA: No significant change
